Test results: the supplement of paper PMC6411743

Compound: Nc1ncnc2c1ncn2[C@@H]1O[C@H](COP(=O)(O)OP(=O)(O)OP(=O)(O)O)[C@@H](O)[C@H]1O [adenosine triphosphate]
Test: pEC50 of ATP-induced change in protein thermal stability (2D-TPP)
Procedure, shortened: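 pEC50 was obtained by fitting dose-response curves for each replicate over pairs of adjacent temperatures, and hits were assigned using permutation-based false discovery rate control. The input came from Jurkat crude lysate treated with five concentrations including vehicle (10 min, room temperature), heated at 12 temperatures from 42 to 63.9 °C for 3 min, then given NP40 and benzonase (60 min, 4 °C). After ultracentrifugation, soluble protein was quantified by TMT LC-MS/MS as median-normalised fold changes versus vehicle per temperature, across three independent experiments.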
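Also: lysate dosed with Na-ATP at 0 0.005 0.05 0.5 and 2 mM.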

Sequence of UniProt O00231 (O00231 whole entry): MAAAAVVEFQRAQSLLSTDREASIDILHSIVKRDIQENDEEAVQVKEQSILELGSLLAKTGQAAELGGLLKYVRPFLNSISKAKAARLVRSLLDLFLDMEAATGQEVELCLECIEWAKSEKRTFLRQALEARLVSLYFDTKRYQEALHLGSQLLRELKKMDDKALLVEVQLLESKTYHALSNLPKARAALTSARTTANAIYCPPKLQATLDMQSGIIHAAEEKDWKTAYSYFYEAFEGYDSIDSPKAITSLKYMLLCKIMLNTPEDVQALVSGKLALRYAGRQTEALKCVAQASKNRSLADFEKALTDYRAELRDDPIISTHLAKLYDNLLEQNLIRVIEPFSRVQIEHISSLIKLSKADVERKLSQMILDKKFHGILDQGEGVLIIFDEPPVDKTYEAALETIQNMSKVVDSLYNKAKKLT
Sequence of UniProt O43818 (O43818 whole entry): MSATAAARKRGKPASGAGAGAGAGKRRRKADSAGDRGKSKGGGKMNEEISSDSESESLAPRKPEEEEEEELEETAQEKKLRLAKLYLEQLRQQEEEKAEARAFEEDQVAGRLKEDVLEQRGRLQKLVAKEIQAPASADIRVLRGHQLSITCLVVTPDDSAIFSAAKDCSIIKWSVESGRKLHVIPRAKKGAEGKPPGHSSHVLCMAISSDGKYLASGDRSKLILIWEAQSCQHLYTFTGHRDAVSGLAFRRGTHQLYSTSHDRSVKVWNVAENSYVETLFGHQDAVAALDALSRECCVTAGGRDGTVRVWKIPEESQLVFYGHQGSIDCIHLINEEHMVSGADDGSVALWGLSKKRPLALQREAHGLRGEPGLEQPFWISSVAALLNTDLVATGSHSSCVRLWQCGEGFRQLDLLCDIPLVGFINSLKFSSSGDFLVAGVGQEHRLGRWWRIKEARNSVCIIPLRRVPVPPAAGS
Sequence of UniProt Q6PCB5 (Q6PCB5 whole entry): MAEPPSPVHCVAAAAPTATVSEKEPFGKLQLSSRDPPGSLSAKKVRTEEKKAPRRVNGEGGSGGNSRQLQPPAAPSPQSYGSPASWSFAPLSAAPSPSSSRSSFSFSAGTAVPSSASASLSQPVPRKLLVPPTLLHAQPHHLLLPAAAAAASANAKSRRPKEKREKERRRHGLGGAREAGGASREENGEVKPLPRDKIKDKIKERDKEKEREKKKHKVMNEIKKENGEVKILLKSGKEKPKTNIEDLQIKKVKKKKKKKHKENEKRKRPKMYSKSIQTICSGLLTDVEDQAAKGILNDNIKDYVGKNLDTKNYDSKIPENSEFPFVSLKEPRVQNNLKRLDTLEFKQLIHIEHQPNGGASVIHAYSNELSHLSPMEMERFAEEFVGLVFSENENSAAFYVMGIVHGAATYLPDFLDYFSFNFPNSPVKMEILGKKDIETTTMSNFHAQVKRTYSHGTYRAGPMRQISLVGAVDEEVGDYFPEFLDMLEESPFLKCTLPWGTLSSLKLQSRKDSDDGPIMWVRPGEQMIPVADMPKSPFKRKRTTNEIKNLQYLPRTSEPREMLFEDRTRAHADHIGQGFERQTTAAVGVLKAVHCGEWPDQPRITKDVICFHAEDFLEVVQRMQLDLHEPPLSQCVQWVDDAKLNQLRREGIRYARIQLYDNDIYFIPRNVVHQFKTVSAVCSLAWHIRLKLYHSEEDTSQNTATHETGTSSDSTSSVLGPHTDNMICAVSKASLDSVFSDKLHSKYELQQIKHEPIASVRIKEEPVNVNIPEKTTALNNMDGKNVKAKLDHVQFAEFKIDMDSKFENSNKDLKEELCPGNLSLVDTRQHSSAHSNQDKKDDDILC
Sequence of UniProt P04843 (P04843 whole entry): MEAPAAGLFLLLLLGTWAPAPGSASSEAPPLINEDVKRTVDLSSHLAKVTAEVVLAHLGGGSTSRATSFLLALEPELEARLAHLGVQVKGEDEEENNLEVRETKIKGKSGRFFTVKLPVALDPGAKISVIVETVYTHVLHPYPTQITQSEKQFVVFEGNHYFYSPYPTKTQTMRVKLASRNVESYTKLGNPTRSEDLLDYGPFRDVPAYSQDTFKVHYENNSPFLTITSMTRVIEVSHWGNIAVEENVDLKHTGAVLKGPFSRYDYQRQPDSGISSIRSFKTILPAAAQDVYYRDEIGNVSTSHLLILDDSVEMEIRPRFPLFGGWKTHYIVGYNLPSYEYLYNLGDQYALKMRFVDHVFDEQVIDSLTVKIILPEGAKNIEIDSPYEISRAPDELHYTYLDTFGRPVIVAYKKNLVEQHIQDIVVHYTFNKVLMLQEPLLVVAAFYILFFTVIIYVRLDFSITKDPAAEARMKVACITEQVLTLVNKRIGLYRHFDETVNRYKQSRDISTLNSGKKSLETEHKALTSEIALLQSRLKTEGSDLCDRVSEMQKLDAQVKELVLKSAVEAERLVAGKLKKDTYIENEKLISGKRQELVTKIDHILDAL
Sequence of UniProt P43686 (P43686 whole entry): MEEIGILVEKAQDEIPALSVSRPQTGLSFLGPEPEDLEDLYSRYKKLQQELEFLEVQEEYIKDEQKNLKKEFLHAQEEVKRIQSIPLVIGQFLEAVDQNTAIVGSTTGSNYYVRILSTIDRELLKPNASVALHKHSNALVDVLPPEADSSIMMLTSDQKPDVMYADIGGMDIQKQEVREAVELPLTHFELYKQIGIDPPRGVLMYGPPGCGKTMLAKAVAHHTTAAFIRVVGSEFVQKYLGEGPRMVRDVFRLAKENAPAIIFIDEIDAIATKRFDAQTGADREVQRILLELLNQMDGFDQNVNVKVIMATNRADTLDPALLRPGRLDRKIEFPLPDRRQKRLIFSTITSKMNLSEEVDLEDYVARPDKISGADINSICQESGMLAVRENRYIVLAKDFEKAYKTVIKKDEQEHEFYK
Sequence of UniProt Q5T8P6 (Q5T8P6 whole entry): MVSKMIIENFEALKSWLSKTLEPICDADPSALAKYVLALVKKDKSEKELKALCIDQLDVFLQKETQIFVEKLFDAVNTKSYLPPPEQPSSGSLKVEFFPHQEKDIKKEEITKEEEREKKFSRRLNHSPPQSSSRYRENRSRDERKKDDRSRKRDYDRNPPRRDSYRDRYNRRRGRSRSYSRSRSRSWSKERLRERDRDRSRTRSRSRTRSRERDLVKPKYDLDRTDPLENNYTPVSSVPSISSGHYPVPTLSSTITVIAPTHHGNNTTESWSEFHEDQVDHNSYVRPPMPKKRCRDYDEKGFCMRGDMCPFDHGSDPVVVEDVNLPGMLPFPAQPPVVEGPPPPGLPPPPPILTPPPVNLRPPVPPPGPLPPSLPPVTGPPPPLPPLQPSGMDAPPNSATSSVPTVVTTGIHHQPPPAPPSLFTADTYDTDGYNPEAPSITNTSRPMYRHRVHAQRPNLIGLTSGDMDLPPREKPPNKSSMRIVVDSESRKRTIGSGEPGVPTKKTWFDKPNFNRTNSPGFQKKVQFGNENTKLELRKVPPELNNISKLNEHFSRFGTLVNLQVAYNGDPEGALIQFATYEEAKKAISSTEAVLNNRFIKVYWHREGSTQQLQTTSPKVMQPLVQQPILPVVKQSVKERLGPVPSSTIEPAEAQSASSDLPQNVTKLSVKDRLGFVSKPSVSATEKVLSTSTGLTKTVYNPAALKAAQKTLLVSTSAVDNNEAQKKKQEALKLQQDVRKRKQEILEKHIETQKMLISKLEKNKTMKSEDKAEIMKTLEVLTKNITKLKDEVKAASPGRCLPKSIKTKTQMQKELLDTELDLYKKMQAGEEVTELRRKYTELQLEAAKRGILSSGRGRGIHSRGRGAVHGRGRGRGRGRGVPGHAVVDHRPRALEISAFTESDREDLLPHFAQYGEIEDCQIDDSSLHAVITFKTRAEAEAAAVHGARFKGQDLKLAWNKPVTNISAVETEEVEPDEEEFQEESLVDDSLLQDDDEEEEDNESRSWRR
Sequence of UniProt Q14493 (Q14493 whole entry, looked up): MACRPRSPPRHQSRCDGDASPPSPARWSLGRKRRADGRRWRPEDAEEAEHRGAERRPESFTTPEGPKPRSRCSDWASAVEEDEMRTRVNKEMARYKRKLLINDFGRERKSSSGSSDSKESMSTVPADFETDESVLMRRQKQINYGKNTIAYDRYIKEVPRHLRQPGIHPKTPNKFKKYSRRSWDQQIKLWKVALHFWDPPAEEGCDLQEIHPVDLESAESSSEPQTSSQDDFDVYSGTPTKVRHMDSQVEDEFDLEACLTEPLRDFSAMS
Sequence of UniProt O60880 (O60880 whole entry): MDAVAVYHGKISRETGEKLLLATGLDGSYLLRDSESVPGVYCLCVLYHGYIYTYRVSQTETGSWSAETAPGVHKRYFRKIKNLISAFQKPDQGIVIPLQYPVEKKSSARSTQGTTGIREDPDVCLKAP
Sequence of UniProt Q96QR8 (Q96QR8 whole entry): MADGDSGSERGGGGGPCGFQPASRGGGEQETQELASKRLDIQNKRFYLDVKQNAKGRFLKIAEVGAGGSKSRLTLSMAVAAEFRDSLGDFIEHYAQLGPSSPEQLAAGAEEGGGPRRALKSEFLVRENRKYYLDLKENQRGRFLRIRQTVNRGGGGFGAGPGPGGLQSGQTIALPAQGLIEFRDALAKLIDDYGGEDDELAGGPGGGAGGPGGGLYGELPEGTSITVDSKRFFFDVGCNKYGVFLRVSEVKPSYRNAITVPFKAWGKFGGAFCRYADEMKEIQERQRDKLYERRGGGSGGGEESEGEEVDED
Sequence of UniProt Q9HB40 (Q9HB40 whole entry): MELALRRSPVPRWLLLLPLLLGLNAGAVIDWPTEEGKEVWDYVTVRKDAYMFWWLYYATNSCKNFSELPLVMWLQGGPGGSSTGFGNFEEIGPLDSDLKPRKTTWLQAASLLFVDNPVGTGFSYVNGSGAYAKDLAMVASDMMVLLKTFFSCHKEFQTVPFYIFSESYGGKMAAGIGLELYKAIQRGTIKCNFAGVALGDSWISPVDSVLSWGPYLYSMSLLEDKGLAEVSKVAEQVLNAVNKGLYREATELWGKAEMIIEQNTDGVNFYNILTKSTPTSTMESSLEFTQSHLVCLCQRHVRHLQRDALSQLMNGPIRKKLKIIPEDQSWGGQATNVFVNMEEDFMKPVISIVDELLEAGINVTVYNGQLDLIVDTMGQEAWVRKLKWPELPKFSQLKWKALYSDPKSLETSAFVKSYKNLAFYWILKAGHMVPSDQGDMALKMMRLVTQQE

Target	pEC50
PSMC2 (effect direction: stabilized) (UniProt P35998)	4.28
PSMC3 (effect direction: stabilized) (UniProt P17980)	4.02
PSMD3 (effect direction: stabilized) (UniProt O43242)	4.24
PSMD6 (effect direction: stabilized) (UniProt Q15008)	4.15
PSMD8 (effect direction: stabilized) (UniProt P48556)	4.12
PSMD11 (effect direction: stabilized) (UniProt O00231)	4.08
PSMD12 (effect direction: stabilized) (UniProt O00232)	4.29
PSMD13 (effect direction: stabilized) (UniProt Q9UNM6)	4.14
PTAR1 (effect direction: stabilized) (UniProt Q7Z6K3)	< 2.7
PUS7 (effect direction: stabilized) (UniProt Q96PZ0)	< 2.7
RAB3GAP2 (effect direction: stabilized) (UniProt Q9H2M9)	5.16
RAD21 (effect direction: stabilized) (UniProt O60216)	3.6
RAD51 (effect direction: stabilized) (UniProt Q06609)	3.65
RAD51C (effect direction: stabilized) (UniProt O43502)	3.46
RAP1GDS1 (effect direction: stabilized) (UniProt P52306)	< 2.7
RAPGEF1 (effect direction: destabilized) (UniProt Q13905)	2.88
RASSF5 (effect direction: stabilized) (UniProt Q8WWW0)	3.13
RBM26 (effect direction: stabilized) (UniProt Q5T8P6)	3.67
RELA (effect direction: stabilized) (UniProt Q04206)	< 2.7
RFK (effect direction: stabilized) (UniProt Q969G6)	4.07
RIOK3 (effect direction: stabilized) (UniProt O14730)	3.7
RNF20 (effect direction: stabilized) (UniProt Q5VTR2)	< 2.7

Target	pEC50
ROCK1 (effect direction: stabilized) (UniProt Q13464)	2.77
RPA1 (effect direction: stabilized) (UniProt P27694)	3.58
RPL18 (effect direction: destabilized) (UniProt Q07020)	< 2.7
RPS2 (effect direction: destabilized) (UniProt P15880)	3.82
RPS10 (effect direction: destabilized) (UniProt P46783)	< 2.7
RRP15 (effect direction: destabilized) (UniProt Q9Y3B9)	3.51
SACM1L (effect direction: stabilized) (UniProt Q9NTJ5)	3.14
SARNP (effect direction: destabilized) (UniProt P82979)	3.18
SARS2 (effect direction: stabilized) (UniProt Q9NP81)	3.43
SCCPDH (effect direction: stabilized) (UniProt Q8NBX0)	3.12
SCPEP1 (effect direction: stabilized) (UniProt Q9HB40)	3.37
SF3A1 (effect direction: stabilized) (UniProt Q15459)	2.79
SF3A3 (effect direction: stabilized) (UniProt Q12874)	< 2.7
SH2D1A (effect direction: stabilized) (UniProt O60880)	< 2.7
SHKBP1 (effect direction: stabilized) (UniProt Q8TBC3)	2.83
SHPK (effect direction: stabilized) (UniProt Q9UHJ6)	2.83
SLC12A9 (effect direction: stabilized) (UniProt Q9BXP2)	3.94
SMARCC1 (effect direction: stabilized) (UniProt Q92922)	3.43
SMC1A (effect direction: stabilized) (UniProt Q14683)	3.41
SMC3 (effect direction: stabilized) (UniProt Q9UQE7)	3.41
SMC4 (effect direction: stabilized) (UniProt Q9NTJ3)	3.54

Now from value to target:

pEC50	Target
4.09	PSMC4 (effect direction: stabilized) (UniProt P43686)
4.35	PSMD1 (effect direction: stabilized) (UniProt Q99460)
3.96	PSMD2 (effect direction: stabilized) (UniProt Q13200)
3.77	PSMD4 (effect direction: stabilized) (UniProt P55036)
3.99	PSMD5 (effect direction: stabilized) (UniProt Q16401)
4.16	PSMD7 (effect direction: stabilized) (UniProt P51665)
3.15	PTBP1 (effect direction: stabilized) (UniProt P26599)
3.13	PURA (effect direction: stabilized) (UniProt Q00577)
< 2.7	PURB (effect direction: stabilized) (UniProt Q96QR8)
2.99	PUS1 (effect direction: stabilized) (UniProt Q9Y606)
< 2.7	Q5JWF2|P63092 (effect direction: stabilized) (UniProt P63092+Q5JWF2)
< 2.7	RABGAP1 (effect direction: stabilized) (UniProt Q9Y3P9)
3.08	RABGEF1 (effect direction: stabilized) (UniProt Q9UJ41)
3.69	RACGAP1 (effect direction: stabilized) (UniProt Q9H0H5)
3.3	RAD54L2 (effect direction: stabilized) (UniProt Q9Y4B4)
< 2.7	RANGAP1 (effect direction: stabilized) (UniProt P46060)
3.07	RB1 (effect direction: stabilized) (UniProt P06400)
< 2.7	RBMX (effect direction: destabilized) (UniProt P38159)
3.2	RDH14 (effect direction: stabilized) (UniProt Q9HBH5)
< 2.7	RFX1 (effect direction: stabilized) (UniProt P22670)
3.11	RIOK1 (effect direction: stabilized) (UniProt Q9BRS2)
2.76	RNASEH2C (effect direction: stabilized) (UniProt Q8TDP1)
3.88	RPL10 (effect direction: destabilized) (UniProt P27635)
< 2.7	RPL10A (effect direction: destabilized) (UniProt P62906)

pEC50	Target
> 5.3	RPL13 (effect direction: destabilized) (UniProt P26373)
3.99	RPL14 (effect direction: destabilized) (UniProt P50914)
3.27	RPL17 (effect direction: destabilized) (UniProt P18621)
3.2	RPL27A (effect direction: destabilized) (UniProt P46776)
4.17	RPL28 (effect direction: destabilized) (UniProt P46779)
4.92	RPL34 (effect direction: destabilized) (UniProt P49207)
< 2.7	RPN1 (effect direction: stabilized) (UniProt P04843)
< 2.7	RPS3 (effect direction: destabilized) (UniProt P23396)
3.86	RPS3A (effect direction: destabilized) (UniProt P61247)
< 2.7	RPSA (effect direction: stabilized) (UniProt P08865)
2.98	RRP9 (effect direction: destabilized) (UniProt O43818)
3.21	RSBN1L (effect direction: stabilized) (UniProt Q6PCB5)
< 2.7	SAE1 (effect direction: stabilized) (UniProt Q9UBE0)
< 2.7	SDAD1 (effect direction: destabilized) (UniProt Q9NVU7)
< 2.7	SF3B3 (effect direction: stabilized) (UniProt Q15393)
2.77	SFXN1 (effect direction: stabilized) (UniProt Q9H9B4)
2.92	SKIV2L (effect direction: stabilized) (UniProt Q15477)
3.47	SLBP (effect direction: stabilized) (UniProt Q14493)
3.44	SLC12A2 (effect direction: stabilized) (UniProt P55011)
3.05	SLC27A4 (effect direction: stabilized) (UniProt Q6P1M0)
4.03	SMARCA5 (effect direction: stabilized) (UniProt O60264)
3.94	SMARCAD1 (effect direction: stabilized) (UniProt Q9H4L7)
3.49	SMC2 (effect direction: stabilized) (UniProt O95347)
